Measured values taken from paper PMC5553193 (Journal of the American Chemical Society, 2015).
Residue numbers refer to the chain shown, from its start. Peptide text beside a SMILES is read from it. * marks the point of attachment. X1 = O=C(C=NOCCO[C@H]1O[C@H](CO)[C@@H](O)[C@H](O)[C@@H]1O)*

How the values were obtained:
ConA [1] = biological target: T1, ConA (Canavalia ensiformis, UniProt P02866); assay type: binding
DC-SIGN [2] = biological target: T2, DC-SIGN (Homo sapiens, UniProt Q9NNX6); assay: ESI-MS binding assay with DC-SIGN
T2 sequence (Q9NNX6 1-404): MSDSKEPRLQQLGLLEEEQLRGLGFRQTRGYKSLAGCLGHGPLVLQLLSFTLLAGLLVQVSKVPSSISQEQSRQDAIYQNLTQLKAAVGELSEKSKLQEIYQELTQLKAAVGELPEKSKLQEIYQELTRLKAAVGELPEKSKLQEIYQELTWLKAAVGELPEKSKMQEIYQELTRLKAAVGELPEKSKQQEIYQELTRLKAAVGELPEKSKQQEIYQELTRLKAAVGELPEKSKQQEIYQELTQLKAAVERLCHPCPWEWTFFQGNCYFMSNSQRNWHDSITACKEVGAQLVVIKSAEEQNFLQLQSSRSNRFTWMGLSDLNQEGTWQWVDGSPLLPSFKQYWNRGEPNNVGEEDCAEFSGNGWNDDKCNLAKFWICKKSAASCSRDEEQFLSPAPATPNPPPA

LcH = biological target: T3, LcH (Lens culinaris, UniProt P02870); assay: ITC with LcH; assay type: binding
T3 sequence (P02870 31-211 limits assumed): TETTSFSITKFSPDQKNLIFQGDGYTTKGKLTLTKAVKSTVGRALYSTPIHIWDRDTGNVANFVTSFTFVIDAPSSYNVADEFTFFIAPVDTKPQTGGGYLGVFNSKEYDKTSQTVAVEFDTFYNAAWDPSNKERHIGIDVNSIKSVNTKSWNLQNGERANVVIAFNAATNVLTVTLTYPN
T3 sequence (P02870 218-269 limits assumed): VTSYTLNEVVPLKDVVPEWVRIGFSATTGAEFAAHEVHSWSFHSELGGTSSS

PSA = biological target: T4, PSA (Pisum sativum, UniProt P02867); assay: ITC with PSA; assay type: binding
T4 sequence (P02867 31-211 limits assumed): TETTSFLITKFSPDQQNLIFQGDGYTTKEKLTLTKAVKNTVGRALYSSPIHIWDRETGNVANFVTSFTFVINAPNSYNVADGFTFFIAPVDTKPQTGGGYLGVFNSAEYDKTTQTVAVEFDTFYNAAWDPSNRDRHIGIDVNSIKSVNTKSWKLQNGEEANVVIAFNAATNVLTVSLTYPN
T4 sequence (P02867 218-269 limits assumed): T3 sequence (P02870 218-269 limits assumed) with N7S, E8D, P11S, F32Y, H38L, G47S

DC-SIGN [3] = biological target: T2, DC-SIGN; conditions: read-out: KD with DC-SIGN; literature value; cited from earlier work
ConA [4] = biological target: T1, ConA; conditions: read-out: KD with ConA; literature value; cited from earlier work

CC[C@H](C)[C@H](NC(=O)[C@H](CC(N)=O)NC(=O)[C@H](CC(=O)O)NC(=O)[C@H](Cc1ccccc1)NC(=O)[C@H](CC(C)C)NC(=O)[C@H](CC(=O)O)NC(=O)[C@H](Cc1ccc(O)cc1)NC(=O)[C@H](Cc1c[nH]c2ccccc12)NC(=O)C=NOCCO[C@H]1O[C@H](CO)[C@@H](O)[C@H](O)[C@@H]1O)C(=O)N[C@@H](CC(N)=O)C(=O)N[C@@H](CO)C(N)=O [L30, Man-WYDLFDNINS] (X1-WYDLFDNINS-NH2; N-terminus assumed)
fold enhancement in affinity (lower KD) over MeMan (ConA [1]): 33 fold

NC(=O)[C@H](CC(=O)O)NC(=O)[C@H](Cc1ccc(O)cc1)NC(=O)[C@H](Cc1c[nH]c2ccccc12)NC(=O)C=NOCCO[C@H]1O[C@H](CO)[C@@H](O)[C@H](O)[C@@H]1O [L20]
enhanced affinity for DC-SIGN (DC-SIGN [2]): enhanced affinity

CC(C)C[C@H](NC(=O)[C@H](CC(=O)O)NC(=O)[C@H](Cc1ccc(O)cc1)NC(=O)[C@H](Cc1c[nH]c2ccccc12)NC(=O)C=NOCCO[C@H]1O[C@H](CO)[C@@H](O)[C@H](O)[C@@H]1O)C(=O)N[C@@H](Cc1ccccc1)C(N)=O [L37, Man-WYDLF] (X1-WYDLF-NH2; N-terminus assumed)
fold enhancement of binding of monosaccharide moiety by peptide fragment (LcH): 2 fold
fold enhancement of binding of monosaccharide moiety by peptide fragment (PSA): 2 fold
fold enhancement of binding of monosaccharide moiety by peptide fragment (ConA [1]; ITC): 35 fold

OC[C@H]1O[C@H](OC[C@H]2O[C@H](O)[C@@H](O)[C@@H](O[C@H]3O[C@H](CO)[C@@H](O)[C@H](O)[C@@H]3O)[C@@H]2O)[C@@H](O)[C@@H](O)[C@@H]1O [Man3, α-Man-(1→3)-[α-Man-(1→6)]-α-Man]
Kd (DC-SIGN [3]): 590 µM
Kd (ConA [4]): 2.6 µM
